US6440984B1, “Use of aryl-substituted pyrimidines as insecticidal and acaricidal agents” (BASF Aktiengesellschaft, priority 1998, dated 2002)

Key:
Format in all cases: in vivo
[1] = tested on: Spodoptera Eridania, 3rd Instar Larvae, Southern Armyworm (SAW); test: Southern armyworm (SAW) leaf-dip test, observations at 5 days; details: Southern Army Worm, rating scale; for pest or weed control at 1000 ppm: Spodoptera eridania, foliar, 120 h, read-out: SAW 2^ND-FOLIAR 1000 (ppm)
Procedure: (§1) Test solutions are prepared by dissolving the test compound in a 35% acetone in water mixture to give a concentration of 10,000 ppm. Subsequent dilutions are made with water as needed.
Spodoptera Eridania, 3rd Instar Larvae, Southern Armyworm (SAW)
A Sieva lima bean leaf expanded to 7-8 cm in length is dipped in the test solution with agitation for 3 seconds and allowed to dry in a hood. The leaf is then placed in a 100×10 mm petri dish containing a damp filter paper on the bottom and ten 3rd instar caterpillars. At 5 days, observations are made of mortality, reduced feeding, or any interference with normal molting.

[2] = tested on: Aphis Fabae, Mixed Instar, Bean Aphid (BA); test: Bean aphid (BA) foliar spray test, mortality after 2 days; details: rating scale; for pest or weed control at 300 ppm: Aphis fabae, 48 h, read-out: BA AD-FOLIAR 300 (ppm)
Procedure: as §1
Aphis Fabae, Mixed Instar, Bean Aphid (BA)
Pots containing single nasturtium plants (Tropaeolum sp.) about 5 cm tall are infested with about 100-200 aphids one day before the test. Each pot is sprayed with the test solution for 2 revolutions of a 4 rpm turntable in a hood. The spray is directed to give complete coverage of the plants and aphids. The sprayed pots are set on their sides on white trays and held for 2 days, following which mortality estimates are made. Essentially the same method is used with respect to cotton aphid (CA).

[3] = tested on: Tetranychus Urticae (OP-resistant strain), 2-spotted Spider Mite (TSM); test: Two-spotted spider mite (TSM) plant-dip test, mortality after 2 days; details: rating scale; for pest or weed control at 300 ppm: Tetranychus urticae, 48 h, read-out: TSM AD-FOLIAR 300 (ppm)
Procedure: as §1
Tetranychus Urticae (OP-resistant strain), 2-spotted Spider Mite (TSM)
Sieva lima bean plants with primary leaves expanded to 7-8 cm are selected and cut back to one plant per pot. A small piece is cut from an infested leaf taken from the main colony and placed on each leaf of the test plants. This is done about 2 hours before treatment to allow the mites to move over to the test plant to lay eggs. The size of the cut, infested leaf is varied to obtain about 100 mites per leaf. At the time of test treatment, the piece of leaf used to transfer the mites is removed and discarded. The newly-infested plants are dipped in the test solution for 3 seconds with agitation and set in the hood to dry. After 2 days, one leaf is removed and mortality counts are made.

Compound: CCc1cnc(Oc2cccc(C(F)(F)F)c2)nc1-c1ccc(Cl)c(F)c1 [Compound 82]
- pest or weed control at 1000 ppm [1]: 76 to 100%

Compound: FC(F)(F)c1cc(Oc2nccc(-c3ccc(Cl)cc3)n2)ccc1Cl [Compound 1]
- SAW 2^ND-FOLIAR 1000 (ppm) [1]: A (A 0-45% kill)

Compound: Fc1cc(-c2ccnc(Oc3cccc(C(F)(F)F)c3)n2)cc(C(F)(F)F)c1 [Compound 52]
- SAW 2^ND-FOLIAR 1000 (ppm) [1]: A (A 0-45% kill)

Compound: O=[N+]([O-])c1cccc(Oc2nccc(-c3ccc(Cl)cc3)n2)c1 [Compound 140]
- pest or weed control at 300 ppm [2]: 0 to 45%
- pest or weed control at 300 ppm [3]: 45 to 75%

Compound: Fc1ccc(Oc2nccc(-c3ccc(Cl)cc3)n2)cc1C(F)(F)F [Compound 115]
- pest or weed control at 1000 ppm [1]: 0 to 45%
- pest or weed control at 300 ppm [3]: 45 to 75%

Compound: FC(F)(F)c1cccc(Oc2nccc(-c3ccc(Br)cc3)n2)c1 [Compound 161]
- pest or weed control at 300 ppm [2]: 76 to 100%
- pest or weed control at 1000 ppm [1]: 0 to 45%

Compound: FC(F)(F)c1cc(Oc2nccc(-c3ccc(Cl)cc3)n2)ccc1Cl [Compound 122]
- pest or weed control at 1000 ppm [1]: 45 to 75%

Compound: CC(C)(C)c1ccc(-c2ccnc(Oc3ccc([N+](=O)[O-])c(C(F)(F)F)c3)n2)cc1 [Compound 26]
- BA AD-FOLIAR 300 (ppm) [2]: B (B 45-75% kill)

Compound: Fc1cccc(Oc2nccc(-c3ccc(Cl)cc3)n2)c1 [Compound 137]
- pest or weed control at 300 ppm [2]: 76 to 100%

Compound: CSc1cc(-c2cccc(C(F)(F)F)c2)nc(Oc2cccc(C(F)(F)F)c2)n1 [Compound 108]
- pest or weed control at 300 ppm [2]: 45 to 75%

Compound: FC(F)(F)c1cccc(Oc2nccc(-c3ccc(Cl)c(Cl)c3)n2)c1 [Compound 154]
- pest or weed control at 300 ppm [2]: 45 to 75%

Compound: FC(F)(F)c1ccc(-c2ccnc(Oc3ccc(Cl)c(Cl)c3)n2)cc1 [Compound 28]
- BA AD-FOLIAR 300 (ppm) [2]: A (A 0-45% kill)

Compound: Fc1ccc(Oc2nccc(-c3ccccc3)n2)cc1C(F)(F)F [Compound 6]
- SAW 2^ND-FOLIAR 1000 (ppm) [1]: A (A 0-45% kill)

Compound: FC(F)(F)c1cccc(Oc2nccc(-c3ccc(Cl)cc3)n2)c1 [Compound 2]
- TSM AD-FOLIAR 300 (ppm) [3]: C (C 76-100% kill)

Compound: Fc1ccc(Oc2nccc(-c3ccccc3)n2)cc1C(F)(F)F [Compound 130]
- pest or weed control at 300 ppm [2]: 0 to 45%

Compound: CCc1ccc(-c2ccnc(Oc3ccc(F)c(Cl)c3)n2)cc1 [Compound 13]
- BA AD-FOLIAR 300 (ppm) [2]: C (C 76-100% kill)
- SAW 2^ND-FOLIAR 1000 (ppm) [1]: C (C 76-100% kill)

Compound: Fc1ccc(Oc2nccc(-c3ccc(Br)cc3)n2)cc1C(F)(F)F [Compound 162]
- pest or weed control at 1000 ppm [1]: 0 to 45%

Compound: Fc1ccc(Oc2nccc(-c3ccc(F)c(C(F)(F)F)c3)n2)cc1C(F)(F)F [Compound 70]
- TSM AD-FOLIAR 300 (ppm) [3]: B (B 45-75% kill)

Compound: CCc1ccc(-c2ccnc(Oc3cccc(C(F)(F)F)c3)n2)cc1 [Compound 15]
- BA AD-FOLIAR 300 (ppm) [2]: C (C 76-100% kill)
- TSM AD-FOLIAR 300 (ppm) [3]: C (C 76-100% kill)

Compound: CCc1ccc(-c2ccnc(Oc3ccc(Cl)c(C(F)(F)F)c3)n2)cc1 [Compound 17]
- BA AD-FOLIAR 300 (ppm) [2]: C (C 76-100% kill)

Compound: FC(F)(F)c1cccc(Oc2nccc(-c3ccccc3)n2)c1 [Compound 128]
- pest or weed control at 300 ppm [2]: 45 to 75%
- pest or weed control at 300 ppm [3]: 76 to 100%

Compound: Fc1cc(F)cc(-c2ccnc(Oc3ccc(F)c(C(F)(F)F)c3)n2)c1 [Compound 62]
- BA AD-FOLIAR 300 (ppm) [2]: B (B 45-75% kill)
- SAW 2^ND-FOLIAR 1000 (ppm) [1]: C (C 76-100% kill)

Compound: Fc1ccc(Oc2nccc(-c3ccc(Cl)cc3)n2)cc1Cl [Compound 150]
- pest or weed control at 300 ppm [2]: 45 to 75%
- pest or weed control at 300 ppm [3]: 76 to 100%

Compound: Fc1ccc(Oc2nccc(-c3ccc(C(F)(F)F)cc3)n2)cc1Cl [Compound 31]
- BA AD-FOLIAR 300 (ppm) [2]: B (B 45-75% kill)

Compound: Fc1ccc(Oc2nccc(-c3ccc(Cl)cc3)n2)cc1C(F)(F)F [Compound 4]
- TSM AD-FOLIAR 300 (ppm) [3]: A (A 0-45% kill)

Compound: Fc1cc(-c2ccnc(Oc3ccc(Cl)c(Cl)c3)n2)cc(C(F)(F)F)c1 [Compound 58]
- BA AD-FOLIAR 300 (ppm) [2]: C (C 76-100% kill)

Compound: Fc1ccc(Oc2nccc(-c3cccc(C(F)(F)F)c3)n2)cc1C(F)(F)F [Compound 112]
- pest or weed control at 1000 ppm [1]: 0 to 45%

Compound: CN(C)c1cc(-c2cccc(C(F)(F)F)c2)nc(Oc2cccc(C(F)(F)F)c2)n1 [Compound 111]
- pest or weed control at 300 ppm [2]: 76 to 100%

Compound: Fc1cccc(Oc2nccc(-c3ccc(Cl)cc3)n2)c1 [Compound 142]
- pest or weed control at 300 ppm [3]: 76 to 100%
